Results on 2 sequences are retold here after PMC10065799, “High-throughput profiling of sequence recognition by tyrosine kinases and SH2 domains using bacterial peptide display” (eLife, 2023).

The target of this experiment is T1, c-Abl kinase domain (Mus musculus, UniProt P00520).
T1 sequence (P00520 242-493 limits assumed): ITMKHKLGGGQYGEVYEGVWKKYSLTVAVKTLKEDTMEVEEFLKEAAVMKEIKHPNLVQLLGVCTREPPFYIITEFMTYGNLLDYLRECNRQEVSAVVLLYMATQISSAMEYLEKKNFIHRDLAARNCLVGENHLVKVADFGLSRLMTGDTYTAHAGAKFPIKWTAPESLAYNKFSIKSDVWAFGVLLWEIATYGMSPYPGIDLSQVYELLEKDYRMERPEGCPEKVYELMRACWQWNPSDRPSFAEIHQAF
Put plainly: pTyr-Var library bacterial peptide display kinase screen (enrichment scores). The following applies: variant versus reference peptide. Type of experiment: biochemical.

For the sequence ATVQNYLPKCI [A2M_Y817_L815Q], the “c-Abl difference (mean log2 variant - mean log2 reference)” value is listed as -0.04049.
In the case of LHVGFYESDVM [A2M_Y708_R704H], the “c-Abl difference (mean log2 variant - mean log2 reference)” value is recorded as -1.318.
